Data: US9499612B2, “Antigen binding constructs” (Glaxo Group Limited, priority 2011, dated 2016)

Assays:
[1] = test system: VEGF165 induced proliferation of human umbilical vein endothelial cells; assay: Human Umbilical Cord Endothelial Cell (HUVEC) proliferation assay; type: cell-based
Experimental: The assay measures the extent of endothelial cell proliferation induced by a defined concentration of VEGF165 and the ability of VEGF antagonists to block this effect. HUVECs were seeded at 5000 cells per well in 96-well gelatine-coated plates, leaving outer wells free of cells, and incubated for several hours to permit adherence. Test molecules were assayed at equimolar concentrations (max 3.33×10^−08 M) with a 2-fold serial dilution, each in triplicate. The VEGF165 was prepared in basal medium to achieve 75 ng/ml final concentration. Medium was removed manually from the cell monolayers and 50 μl basal media was added to prevent the cells from drying out. […] Cells were incubated for 72 hrs, after which time the total number of cells was determined using Cell Titre Glo. […]
(§1) PRISM™ using a Sigmodial curve fit, variable slope cf a non-linear regression (variable slope). […] Estimates of the curve maxima and the standard error were analysed using a weighted mixed model analysis of variance, using 1/(standard error)^2, [SE]^2, as a weighting. […]
as §1

[2] = test system: human VEGF165 induced blood-retinal breakdown; assay: VEGF induced blood-retinal breakdown: rabbit retinal leakage model; type: in vivo; details: for % reduction vs vehicle: Table 4B
Experimental: The high (H) and low (L) doses were based upon a molar equivalent dosing to Ranibizumab ([…] ™). The low dose, (L), was one third of the high dose.
In brief, all molecules were buffer exchanged using PD-10 Desalting Columns (GE Healthcare) into 10 mM Histidine HCl, 10% α-αtrehalose dehydrate, 0.01% PolySorbate 80, pH 5.5, and concentrated to the desired concentration using VIVASPIN™ 20, molecular weight cut off 5000 Da, spin concentrations (Sartorius Stedim Biotech), both were used according to manufacturer's instructions.
Ninety-eight (98) GD79B pigmented rabbits were randomly divided into nine (9) groups of ten (10) animals and one (1) group of eight (8) animals (used for KENACORT™ control). Each group was subdivided into 2 groups corresponding to 2 experimental sets. Test items, reference or control items were administered by intravitreal injection (IVT, 50 μL) into the right eyes on Day-7. Left eyes remained untreated and served as a negative control. On Day 0, right eyes were induced for blood retinal barrier (BRB) breakdown with a single intravitreal injection of 500 ng rhVEGF165 (vascular permeability inducer). Sodium fluorescein was intravenously injected to all groups 47 h after the VEGF challenge (Day 2). Within 10 min after the injection of the tracer a retinal angiography was performed on right eye and pictures were taken. Ocular fluorescein contents in the vitreoretinal compartment were measured 1 h later using non-invasive scanning ocular fluorophotometry. A right eye/left eye fluorescein content (AUC) Rt ratio was determined for retinal permeability evaluation. At the end of the evaluation period (Day 2), animals were euthanized and right eyes of all animals were enucleated. […] Fluorescein angiograms were collected for qualitative assessment.
One hundred and forty (140) HY79B pigmented rabbits were randomly divided into eleven (11) groups of twelve (12) animals and one (1) group of eight animals, each group was sub-divided into 4 experimental sets of 3 animals, bar the KENACORT™ treated group, (4 sets of 2 animals), (see Table 15A).

[3] = dose H, VEGF induced retinal leakage

Row | Compound | inhibition of HUVEC proliferation ([1]; Example 8, 75 ng/ml VEGF165, 72 hrs) [%] | inhibition of VEGF driven HUVEC proliferation ([1]; Example 18) [%] | % reduction vs vehicle [2, 3] [%] | % reduction vs vehicle ([2]; 2 000 μg/eye) [%] | % reduction ([2]; Table 15B (ii), 2 000 ug/eye) [%] | % reduction vs vehicle ([2]; low dose (L)) [%]
1 | Bevacizumab [AVASTIN ™, reference compound] | ~100 | ~100 | 75 |  |  | 
2 | C[C@]12C=CC(=O)C=C1CC[C@H]1[C@@H]3C[C@@H](O)[C@](O)(C(=O)CO)[C@@]3(C)C[C@H](O)[C@@]12F [KENACORT ™, Triamcinalone, reference compound] |  |  |  | 85 | 80 | 
3 | Ranibizumab [LUCENTIS ™, reference compound] |  |  | 82 |  |  | 78
